Drawing on patent publication EP0325187B1, “4-alkyl-1, 4-dihydropyridines with PAF-antagonist activity” (ALTER, S.A., priority 1988, dated 1989), this text covers inhibition for eleven compounds.

The subject of assay [1] is RABBIT PLATELETS
Kind of assay: Platelet release reaction (ATP release, luciferin/luciferase) induced by PAF. It is filed as cell-based, rabbits (male, albino, New Zealand). Particulars: Oryctolagus cuniculus, read-out: % […] REACTION, compound 10 µM, 1-PAF 1.92 nM, pre-incubation 5 minutes, average of six experiments in triplicate. Here is the method:
(§1) • 1. STUDIES ON WASHED PLATELETS • 1.1.Aggregation The suspensions of washed platelets were obtained from the blood of rabbits (male, albino, New Zealand) anticoagulated with a citric acid-dextrose solution in the proportion 1:6 (v:v.) The platelet rich plasma (PRP) was obtained by centrifuging the blood samples at 100xg for 10 minutes and the platelet suspensions by centrifuging the PRP at 1,800xg for 15 minutes at 4° C. The pellet thus obtained was washed twice with Tyrode buffer containing citric acid, PGE₁ and apirase, pH 6.5. The platelets thus washed were finally resuspended in Hepes-Tyrode buffer, pH 7.35, supplemented with bovine albumin serum at 0.35 %; Ca⁺⁺2 mM. The final concentration of platelets was adjusted to 300,000 platelets/µl. The aggregation was measured turbidimetrically using a lumiaggregometer (Chrono-Log Co., Haventon, PA, USA) at 37° C under stirring at 1,100 r.p.m. The study was also carried out on aliquots of PRP pre-incubated with the compounds under study at 37° C for 5 minutes. The concentration of the antagonists were in all cases 10 µM and aggregation was induced by adding L-PAF diluted in 5 µl of Hepes buffer/albumin, with a final concentration 1.9 x 10⁻⁹M. • 1.2. Release reaction The platelet secretion was measured in the presence of luciferin/luciferase with ATP release in accord with the method described by Feinman et al. (1977.) • 2. STUDIES ON ANESTHETIZED RATS Hypotension induced by an intravenous injection of PAF-aceter. Male Sprague-Dawley rats anesthetized with pentobarbital (50 mg/kg., intraperitoneally) were used.

The subject of assay [2] is RABBIT PLATELETS
Kind of assay: Aggregation of washed platelets induced by PAF (turbidimetric, lumiaggregometer). It is filed as cell-based, rabbits (male, albino, New Zealand). Particulars: Oryctolagus cuniculus, Platelet; compound 10 µM; 1-PAF 1.92 nM; pre-incubation 5 minutes; average of six experiments in triplicate. The procedure:
as §1

As for `CCSCCOC(=O)C1=C(C)NC(C)=C(C(=O)OC)C1C` (stereo not shown) [Example 1, 2-(ethylthio)ethyl-2,6-dimethyl-4-methyl-5-methoxycarbonyl-1,4-dihydropyridin-3-carboxylate], the inhibition at 10 µM is 96% in the assay with RABBIT PLATELETS [1] and 44% in the assay on RABBIT PLATELETS [2].
As for `COC(=O)C1=C(C)NC(C)=C(C(=O)OCCSC)C1C` (stereo not shown) [Example 2, 2-(methylthio)ethyl-2,6-dimethyl-4-methyl-5-methoxycarbonyl-1,4-dihydropyridin-3-carboxylate], the figures for the inhibition at 10 µM in the assay with RABBIT PLATELETS [1] and in the assay on RABBIT PLATELETS [2] were 75% and 26%, respectively.
Turning to `CCOC(=O)C1=C(C)NC(C)=C(C(=O)OCCSC)C1C` (stereo not shown) [Example 3, 2,6-(methylthio)ethyl-2,6 dimethyl-5-ethoxycarbonyl-4-methyl-1,4-dihydropyridin-3-carboxylate], the inhibition at 10 µM with RABBIT PLATELETS [1] amounted to 78%; with RABBIT PLATELETS [2], 21%.
`CCOC(=O)C1=C(C)NC(C)=C(C(=O)OCCSCC)C1C` (stereo not shown) [Example 4, 2-(ethylthio)ethyl-2,6-dimethyl-5-ethoxycarbonyl-4-methyl-1,4-dihydropyridin-3-carboxylate]: the inhibition at 10 µM in the assay on RABBIT PLATELETS [1] stood at 89%; with RABBIT PLATELETS [2], 32%.
Regarding `CCOC(=O)C1=C(C)NC(C)=C(C(=O)OCCSC)C1CC` (stereo not shown) [Example 6, 2-(methylthio)ethyl-2,6-dimethyl-4-ethyl-5-ethoxycarbonyl-1,4-dihydropyridin-3-carboxylate], the inhibition at 10 µM with RABBIT PLATELETS [1] was found to be 89%; in the assay on RABBIT PLATELETS [2] it was 32%.
For `CCCC1C(C(=O)OCC)=C(C)NC(C)=C1C(=O)OCCSC` (stereo not shown) [Example 7, 2-(methylthio)ethyl-2,6-dimethyl-5-ethoxycarbonyl-4-n-propyl-1,4-dihydropyridin-3-carboxylate], the inhibition at 10 µM in the assay on RABBIT PLATELETS [1] came out at 50%; in the assay on RABBIT PLATELETS [2] it was 14%.
The matching figures for `CCCC1C(C(=O)OCC)=C(C)NC(C)=C1C(=O)OCCSCC` (stereo not shown) [Example 8, 2-(ethylthio)ethyl-2,6-dimethyl-5-ethoxycarbonyl-4-n-propyl-1,4-dihydropyridin-3-carboxylate]: 69% and 30%.
On to `CCOC(=O)C1=C(C)NC(C)=C(C(=O)OCCSc2ccccc2)C1C` (stereo not shown) [Example 9, 2-(phenylthio)ethyl-2,6-dimethyl-5-ethoxycarbonyl-4-methyl-1,4-dihydropyridin-3-carboxylate], for which the inhibition at 10 µM with RABBIT PLATELETS [1] and with RABBIT PLATELETS [2] was 100% in each case.
Turning to `CC1=C(C(=O)OCCSc2ccccc2)C(C)C(C(=O)OCC2CCCO2)=C(C)N1` (stereo not shown) [Example 10, 2-(phenylthio)ethyl-2,6-dimethyl-4-methyl 5-(2-tetrahydrofurfuryloxycarbonyl)-1,4-dihydropyridin-3-carboxylate], the inhibition at 10 µM came out at 49% in the assay on RABBIT PLATELETS [1] and 11% with RABBIT PLATELETS [2].
On to `CC1=C(C(=O)OCCSc2ccccc2)C(C)C(C(=O)OC(C)C)=C(C)N1` (stereo not shown) [Example 11, 2-(phenylthio)ethyl-2,6-dimethyl-5-isopropoxycarbonyl-4-methyl-1,4-dihydropyridin-3-carboxylate], for which the inhibition at 10 µM with RABBIT PLATELETS [1] amounted to 89%; with RABBIT PLATELETS [2], 33%.
In the case of `COC(=O)C1=C(C)NC(C)=C(C(=O)OCCSc2ccccc2)C1C` (stereo not shown) [Example 12, 2-(phenylthio)ethyl-2,6-dimethyl 4-methyl-5-methoxycarbonyl-1,4-dihydropyridin-3-carboxylate], the inhibition at 10 µM with RABBIT PLATELETS [1] and in the assay on RABBIT PLATELETS [2] was 100% throughout.
